Key:
TLR1/TLR2 [1] = target: TLR1/TLR2 (Mus musculus, UniProt Q9EPQ1+Q9QUN7); test: TNF-α release from thioglycolate-elicited mouse peritoneal macrophages (ELISA); settings: for Emax: 4 h, read-out: Efficacy (magnitude) of response versus diprovocim-1 (100%), mouse macrophages; for EC50: read-out: EC50 (nM) (mouse): EC50 TNF-α release from mouse macrophages, Table 6
TLR1/TLR2 [2] = target: TLR1/TLR2 (Homo sapiens, UniProt O60603+Q15399); test: TNF-α release from PMA-differentiated human THP-1 cells (ELISA); settings: for Emax: THP-1, 4 h, read-out: Efficacy (magnitude) of response versus diprovocim-1 (100%), THP-1; for EC50: read-out: EC50 (nM) (THP-1): EC50 TNF-α release from human THP-1 cells, Table 6;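 on all read-outs here: cells exposed to graded compound concentrations for 4 h, TNF-α quantified in supernatant, LPS as positive and DMSO as negative control, values are duplicate means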
TLR1/TLR2 (Homo sapiens, UniProt O60603+Q15399), sequence (Q15399 25-786): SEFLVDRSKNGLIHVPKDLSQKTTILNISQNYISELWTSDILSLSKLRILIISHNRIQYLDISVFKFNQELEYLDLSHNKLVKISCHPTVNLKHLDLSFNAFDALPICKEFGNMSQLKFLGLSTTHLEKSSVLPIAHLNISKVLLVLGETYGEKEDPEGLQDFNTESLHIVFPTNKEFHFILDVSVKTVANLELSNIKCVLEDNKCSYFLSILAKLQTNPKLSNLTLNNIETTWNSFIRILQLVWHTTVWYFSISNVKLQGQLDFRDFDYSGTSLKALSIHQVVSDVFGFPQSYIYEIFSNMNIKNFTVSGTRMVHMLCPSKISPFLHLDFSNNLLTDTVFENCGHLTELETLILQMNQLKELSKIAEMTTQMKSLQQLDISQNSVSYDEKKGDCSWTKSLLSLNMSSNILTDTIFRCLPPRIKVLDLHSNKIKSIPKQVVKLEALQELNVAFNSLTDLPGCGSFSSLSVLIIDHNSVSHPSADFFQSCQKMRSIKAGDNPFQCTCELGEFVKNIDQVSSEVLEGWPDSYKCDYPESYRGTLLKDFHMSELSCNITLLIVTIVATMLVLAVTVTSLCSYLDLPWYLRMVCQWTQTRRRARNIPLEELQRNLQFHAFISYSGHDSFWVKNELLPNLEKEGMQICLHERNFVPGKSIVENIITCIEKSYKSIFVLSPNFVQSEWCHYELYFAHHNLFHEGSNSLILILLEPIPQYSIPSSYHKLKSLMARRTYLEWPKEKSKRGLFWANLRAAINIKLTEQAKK
TLR1/TLR2 (Homo sapiens, UniProt O60603+Q15399), sequence (O60603 21-784): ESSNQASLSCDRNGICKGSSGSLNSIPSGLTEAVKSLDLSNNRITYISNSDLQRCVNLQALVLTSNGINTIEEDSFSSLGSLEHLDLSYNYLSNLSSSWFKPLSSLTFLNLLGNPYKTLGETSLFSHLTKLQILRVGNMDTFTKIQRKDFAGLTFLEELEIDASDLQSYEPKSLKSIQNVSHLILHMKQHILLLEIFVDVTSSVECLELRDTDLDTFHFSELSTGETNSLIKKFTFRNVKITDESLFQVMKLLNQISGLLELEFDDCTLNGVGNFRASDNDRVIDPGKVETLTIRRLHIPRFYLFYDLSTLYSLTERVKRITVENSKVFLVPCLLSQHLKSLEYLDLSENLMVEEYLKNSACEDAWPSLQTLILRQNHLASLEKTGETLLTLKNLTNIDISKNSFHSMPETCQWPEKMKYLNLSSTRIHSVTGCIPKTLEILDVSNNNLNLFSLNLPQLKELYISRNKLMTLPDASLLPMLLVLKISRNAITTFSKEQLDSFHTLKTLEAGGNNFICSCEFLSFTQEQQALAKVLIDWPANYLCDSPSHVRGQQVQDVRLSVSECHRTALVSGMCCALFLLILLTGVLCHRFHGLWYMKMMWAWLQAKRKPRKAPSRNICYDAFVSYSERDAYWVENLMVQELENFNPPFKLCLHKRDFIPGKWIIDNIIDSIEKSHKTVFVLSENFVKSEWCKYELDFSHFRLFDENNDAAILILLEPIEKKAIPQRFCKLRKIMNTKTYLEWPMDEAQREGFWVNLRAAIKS

TLR1/TLR2 (Mus musculus, UniProt Q9EPQ1+Q9QUN7), sequence (Q9EPQ1 26-795): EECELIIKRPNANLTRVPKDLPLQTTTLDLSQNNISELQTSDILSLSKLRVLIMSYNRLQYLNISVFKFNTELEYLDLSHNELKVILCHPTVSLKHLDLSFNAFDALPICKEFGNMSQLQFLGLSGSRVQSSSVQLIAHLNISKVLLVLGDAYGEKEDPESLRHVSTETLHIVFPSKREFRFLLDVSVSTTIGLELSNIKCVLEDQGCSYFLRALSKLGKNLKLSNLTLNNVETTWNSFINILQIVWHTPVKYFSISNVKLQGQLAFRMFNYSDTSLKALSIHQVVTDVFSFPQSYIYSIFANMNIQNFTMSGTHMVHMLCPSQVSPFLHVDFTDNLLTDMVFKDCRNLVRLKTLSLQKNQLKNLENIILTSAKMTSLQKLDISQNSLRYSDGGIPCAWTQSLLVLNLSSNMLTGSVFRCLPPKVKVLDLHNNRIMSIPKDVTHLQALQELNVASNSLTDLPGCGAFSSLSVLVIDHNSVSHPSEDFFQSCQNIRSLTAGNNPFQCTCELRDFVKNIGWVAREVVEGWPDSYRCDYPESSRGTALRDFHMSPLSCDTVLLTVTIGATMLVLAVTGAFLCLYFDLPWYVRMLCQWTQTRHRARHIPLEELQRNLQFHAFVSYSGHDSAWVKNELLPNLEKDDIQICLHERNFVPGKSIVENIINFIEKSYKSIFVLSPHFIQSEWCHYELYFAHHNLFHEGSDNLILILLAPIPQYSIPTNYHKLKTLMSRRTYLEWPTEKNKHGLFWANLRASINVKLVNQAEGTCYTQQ
TLR1/TLR2 (Mus musculus, UniProt Q9EPQ1+Q9QUN7), sequence (Q9QUN7 25-784): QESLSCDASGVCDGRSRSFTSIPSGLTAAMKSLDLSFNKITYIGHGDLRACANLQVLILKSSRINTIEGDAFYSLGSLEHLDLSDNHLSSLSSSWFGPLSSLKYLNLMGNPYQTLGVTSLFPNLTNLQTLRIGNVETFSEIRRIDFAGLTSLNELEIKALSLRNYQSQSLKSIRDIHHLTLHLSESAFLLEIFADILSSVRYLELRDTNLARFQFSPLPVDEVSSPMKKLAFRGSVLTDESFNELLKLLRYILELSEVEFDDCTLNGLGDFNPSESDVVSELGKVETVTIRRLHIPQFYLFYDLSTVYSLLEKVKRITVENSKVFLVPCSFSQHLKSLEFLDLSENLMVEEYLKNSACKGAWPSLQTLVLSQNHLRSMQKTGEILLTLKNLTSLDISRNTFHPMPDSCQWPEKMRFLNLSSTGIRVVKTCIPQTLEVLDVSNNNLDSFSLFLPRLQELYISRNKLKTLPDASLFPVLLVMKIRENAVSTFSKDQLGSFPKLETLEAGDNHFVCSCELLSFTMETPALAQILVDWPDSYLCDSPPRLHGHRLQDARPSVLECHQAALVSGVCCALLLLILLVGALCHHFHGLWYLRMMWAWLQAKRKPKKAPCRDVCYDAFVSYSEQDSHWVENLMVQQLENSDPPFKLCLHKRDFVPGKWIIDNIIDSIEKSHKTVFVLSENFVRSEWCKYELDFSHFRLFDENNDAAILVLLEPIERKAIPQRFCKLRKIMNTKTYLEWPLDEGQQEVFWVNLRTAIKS

Row | Emax (TLR1/TLR2 [1]) | EC50 (TLR1/TLR2 [1]) | Emax (TLR1/TLR2 [2]) | EC50 (TLR1/TLR2 [2]) | Structure (SMILES)
1 | 300% | 0.67 nM | 100% | 0.05 nM | Nc1ccc(C(=O)OCCCCCCCCCCCCNC(=O)[C@@H]2CN(C(=O)c3ccc(C(=O)N4C[C@@H](C(=O)N[C@H]5C[C@@H]5c5ccccc5)[C@H](C(=O)N[C@H]5C[C@@H]5c5ccccc5)C4)cc3)C[C@H]2C(=O)N[C@H]2C[C@@H]2c2ccccc2)cc1 [Compound 74, 12-((3S,4S)-1-(4-((3S,4S)-3,4-Bis(((1S,2R)-2-phenyl-cyclopropyl)carbamoyl)pyrrolidine-1-carbonyl)benzoyl)-4-(((1S,2R)-2-phenylcyclopropyl)carbamoyl)-pyrrolidine-3-carboxamido)-dodecyl 4-aminobenzoate]
2 | 540% | 50 nM | 100% | 1.7 nM | O=C(OCCCCCCCCCCCCNC(=O)[C@@H]1CN(C(=O)c2ccc(C(=O)N3C[C@@H](C(=O)N[C@H]4C[C@@H]4c4ccccc4)[C@H](C(=O)N[C@H]4C[C@@H]4c4ccccc4)C3)cc2)C[C@H]1C(=O)N[C@H]1C[C@@H]1c1ccccc1)c1ccc(O)cc1 [Compound 75, 12-((3S,4S)-1-(4-((3S,4S)-3,4-Bis(((1S,2R)-2-phenylcyclopropyl)carbamoyl)pyrrolidine-1-carbonyl)benzoyl)-4-(((1S,2R)-2-phenyl-cyclopropyl)carbamoyl)pyrrolidine-3-carboxamido)-dodecyl 4-hydroxybenzoate]
3 | 190% | 785 nM | 90% | 165 nM | CC(C)(C)OC(=O)c1ccc(C(=O)OCCCCCCCCCCCCNC(=O)[C@@H]2CN(C(=O)c3ccc(C(=O)N4C[C@@H](C(=O)N[C@H]5C[C@@H]5c5ccccc5)[C@H](C(=O)N[C@H]5C[C@@H]5c5ccccc5)C4)cc3)C[C@H]2C(=O)N[C@H]2C[C@@H]2c2ccccc2)cc1 [Compound 77, 12-((3S,4S)-1-(4-((3S,4S)-3,4-Bis(((1S,2R)-2-phenylcyclopropyl)carbamoyl)pyrrolidine-1-carbonyl)benzoyl)-4-(((1S,2R)-2-phenyl-cyclopropyl)carbamoyl)pyrrolidine-3-carboxamido)-dodecyl tert-butyl terephthalate]
4 | 120% | 2.1 nM | 100% | 0.69 nM | O=C(O)c1ccc(C(=O)OCCCCCCCCCCCCNC(=O)[C@@H]2CN(C(=O)c3ccc(C(=O)N4C[C@@H](C(=O)N[C@H]5C[C@@H]5c5ccccc5)[C@H](C(=O)N[C@H]5C[C@@H]5c5ccccc5)C4)cc3)C[C@H]2C(=O)N[C@H]2C[C@@H]2c2ccccc2)cc1 [Compound 78, 4-(((12-((3S,4S)-1-(4-((3S,4S)-3,4-Bis(((1S,2R)-2-phenylcyclopropyl)carbamoyl)pyrrolidine-1-carbonyl)benzoyl)-4-(((1S,2R)-2-phenylcyclopropyl)-carbamoyl)pyrrolidine-3-carboxamido)-dodecyl)oxy)carbonyl)benzoic acid]
5 | 130% | 465 nM | 100% | 6.6 nM | CC(C)(C)OC(=O)c1ccc(C(=O)NCC(=O)OCCCCCCCCCCCCNC(=O)[C@@H]2CN(C(=O)c3ccc(C(=O)N4C[C@@H](C(=O)N[C@H]5C[C@@H]5c5ccccc5)[C@H](C(=O)N[C@H]5C[C@@H]5c5ccccc5)C4)cc3)C[C@H]2C(=O)N[C@H]2C[C@@H]2c2ccccc2)cc1 [Compound 79, tert-Butyl 4-((2-((12-((3S,4S)-1-(4-((3S,4S)-3,4-bis-(((1S,2R)-2-phenylcyclopropyl)carbamoyl)-pyrrolidine-1-carbonyl)benzoyl)-4-(((1S,2R)-2-phenylcyclopropyl)-carbamoyl)pyrrolidine-3-carboxamido)dodecyl)oxy)-2-oxoethyl)carbamoyl)benzoate]
6 | 60% | 5 nM | 100% | 0.17 nM | O=C(CNC(=O)c1ccc(C(=O)O)cc1)OCCCCCCCCCCCCNC(=O)[C@@H]1CN(C(=O)c2ccc(C(=O)N3C[C@@H](C(=O)N[C@H]4C[C@@H]4c4ccccc4)[C@H](C(=O)N[C@H]4C[C@@H]4c4ccccc4)C3)cc2)C[C@H]1C(=O)N[C@H]1C[C@@H]1c1ccccc1 [Compound 80, 4-((2-((12-((3S,4S)-1-(4-((3S,4S)-3,4-Bis(((1S,2R)-2-phenylcyclopropyl)carbamoyl)pyrrolidine-1-carbonyl)-benzoyl)-4-(((1S,2R)-2-phenylcyclopropyl)carbamoyl)-pyrrolidine-3-carboxamido)-dodecyl)oxy)-2-oxoethyl)carbamoyl)benzoic acid]
7 | 110% | 62 nM | 90% | 2 nM | CC(C)(C)OC(=O)/C=C/C(=O)NCC(=O)OCCCCCCCCCCCCNC(=O)[C@@H]1CN(C(=O)c2ccc(C(=O)N3C[C@@H](C(=O)N[C@H]4C[C@@H]4c4ccccc4)[C@H](C(=O)N[C@H]4C[C@@H]4c4ccccc4)C3)cc2)C[C@H]1C(=O)N[C@H]1C[C@@H]1c1ccccc1 [Compound 81, (E)-tert-Butyl 4-((2-((12-((3S,4S)-1-(4-((3S,4S)-3,4-bis(((1S,2R)-2-phenylcyclopropyl)carbamoyl)-pyrrolidine-1-carbonyl)benzoyl)-4-(((1S,2R)-2-phenylcyclopropyl)carbamoyl)pyrrolidine-3-carboxamido)dodecyl)oxy)-2-oxoethyl)amino)-4-oxobut-2-enoate]
8 | 60% | 7 nM | 100% | 0.32 nM | O=C(O)/C=C/C(=O)NCC(=O)OCCCCCCCCCCCCNC(=O)[C@@H]1CN(C(=O)c2ccc(C(=O)N3C[C@@H](C(=O)N[C@H]4C[C@@H]4c4ccccc4)[C@H](C(=O)N[C@H]4C[C@@H]4c4ccccc4)C3)cc2)C[C@H]1C(=O)N[C@H]1C[C@@H]1c1ccccc1 [Compound 82, (E)-4-((2-((12-((3S,4S)-1-(4-((3S,4S)-3,4-Bis(((1S,2R)-2-phenylcyclopropyl)carbamoyl)-pyrrolidine-1-carbonyl)benzoyl)-4-(((1S,2R)-2-phenylcyclopropyl)carbamoyl)pyrrolidine-3-carboxamido)dodecyl)oxy)-2-oxoethyl)amino)-4-oxobut-2-enoic acid]
9 | 400% | 16 nM | 110% | 0.54 nM | CC(C)(C)OC(=O)C(=O)NCC(=O)OCCCCCCCCCCCCNC(=O)[C@@H]1CN(C(=O)c2ccc(C(=O)N3C[C@@H](C(=O)N[C@H]4C[C@@H]4c4ccccc4)[C@H](C(=O)N[C@H]4C[C@@H]4c4ccccc4)C3)cc2)C[C@H]1C(=O)N[C@H]1C[C@@H]1c1ccccc1 [Compound 83, tert-Butyl 2-((2-((12-((3S,4S)-1-(4-((3S,4S)-3,4-bis(((1S,2R)-2-phenylcyclopropyl)carbamoyl)-pyrrolidine-1-carbonyl)benzoyl)-4-(((1S,2R)-2-phenylcyclopropyl)carbamoyl)pyrrolidine-3-carboxamido)dodecyl)oxy)-2-oxoethyl)amino)-2-oxoacetate]
10 | 250% | 6.7 nM | 120% | 0.23 nM | O=C(CNC(=O)C(=O)O)OCCCCCCCCCCCCNC(=O)[C@@H]1CN(C(=O)c2ccc(C(=O)N3C[C@@H](C(=O)N[C@H]4C[C@@H]4c4ccccc4)[C@H](C(=O)N[C@H]4C[C@@H]4c4ccccc4)C3)cc2)C[C@H]1C(=O)N[C@H]1C[C@@H]1c1ccccc1 [Compound 84, 2-((2-((12-((3S,4S)-1-(4-((3S,4S)-3,4-Bis(((1S,2R)-2-phenylcyclopropyl)carbamoyl)pyrrolidine-1-carbonyl)benzoyl)-4-(((1S,2R)-2-phenylcyclopropyl)carbamoyl)pyrrolidine-3-carboxamido)-dodecyl)oxy)-2-oxoethyl)amino)-2-oxoacetic acid]
11 | 160% | 36 nM | 110% | 13.4 nM | CC(C)(C)OC(=O)c1ccc(C(=O)NCCOCCCCCCCCCCCCNC(=O)[C@@H]2CN(C(=O)c3ccc(C(=O)N4C[C@@H](C(=O)N[C@H]5C[C@@H]5c5ccccc5)[C@H](C(=O)N[C@H]5C[C@@H]5c5ccccc5)C4)cc3)C[C@H]2C(=O)N[C@H]2C[C@@H]2c2ccccc2)cc1 [Compound 85, tert-Butyl 4-((2-((12-((3S,4S)-1-(4-((3S,4S)-3,4-bis-(((1S,2R)-2-phenylcyclopropyl)carbamoyl)-pyrrolidine-1-carbonyl)benzoyl)-4-(((1S,2R)-2-phenylcyclopropyl)-carbamoyl)pyrrolidine-3-carboxamido)dodecyl)-oxy)ethyl)carbamoyl)benzoate]

Row | Structure (SMILES) | Emax (TLR1/TLR2 [1]) | EC50 (TLR1/TLR2 [1]) | Emax (TLR1/TLR2 [2]) | EC50 (TLR1/TLR2 [2])
12 | CC(C)(C)OC(=O)Nc1ccc(C(=O)OCCCCCCCCCCCCNC(=O)[C@@H]2CN(C(=O)c3ccc(C(=O)N4C[C@@H](C(=O)N[C@H]5C[C@@H]5c5ccccc5)[C@H](C(=O)N[C@H]5C[C@@H]5c5ccccc5)C4)cc3)C[C@H]2C(=O)N[C@H]2C[C@@H]2c2ccccc2)cc1 [Compound 73, 12-((3S,4S)-1-(4-((3S,4S)-3,4-Bis(((1S,2R)-2-phenyl-cyclopropyl)carbamoyl)pyrrolidine-1-carbonyl)-benzoyl)-4-(((1S,2R)-2-phenylcyclopropyl)carbamoyl)-pyrrolidine-3-carboxamido)-dodecyl 4-((tert-butoxycarbonyl)amino)benzoate] | 540% | 30 nM | 90% | 0.57 nM
13 | CC(C)(C)Oc1ccc(C(=O)OCCCCCCCCCCCCNC(=O)[C@@H]2CN(C(=O)c3ccc(C(=O)N4C[C@@H](C(=O)N[C@H]5C[C@@H]5c5ccccc5)[C@H](C(=O)N[C@H]5C[C@@H]5c5ccccc5)C4)cc3)C[C@H]2C(=O)N[C@H]2C[C@@H]2c2ccccc2)cc1 [Compound 76, 12-((3S,4S)-1-(4-((3S,4S)-3,4-Bis(((1S,2R)-2-phenylcyclopropyl)carbamoyl)pyrrolidine-1-carbonyl)benzoyl)-4-(((1S,2R)-2-phenyl-cyclopropyl)carbamoyl)pyrrolidine-3-carboxamido)-dodecyl 4-(tert-butoxy)benzoate] | 150% | 540 nM | < 50% | 27 nM

From patent US20250367166A1, “NEXT GENERATION DIPROVOCIMS THAT ACTIVATE THE INNATE AND ADAPTIVE IMMUNE RESPONSE” (The Scripps Research Institute, priority 2022, published 2025)
